Test results published in US7538084B2, “Cyclosporins” (AMR Technology, Inc., priority 2003, dated 2009).

Key:
murine splenocytes = assay: one-way mixed lymphocyte reaction (MLR) assay, murine; assay type: cell-based, mouse
Protocol: (§1) The MLR assay was designed to measure ^3H-thymidine uptake by human lymphocytes or murine splenocytes that are undergoing cell proliferation in an immune response to allogeneic stimulation. The murine system uses the H2 disparate inbred mouse strains: Balb/c (H2^d) and C57B1/6 (H2^b).
Initial screens were done at a fixed value of 100 ng/ml test compound.

human T-lymphocytes = conditions: mixed lymphocyte reaction assay in human T-lymphocytes
Excerpt: as §1

Substance: Cyclosporin A Methyl Vinyl Ketone (IIIa) [Compound IIIa]
- IC50 (concentration inhibiting proliferation by 50% relative to control) (murine splenocytes; 3H-thymidine uptake, Balb/c responder splenocytes, γ-irradiated C57B1/6 stimulators, 7 point concentration-response curves): 0.31 µg/mL
- immunosuppressive activity (murine splenocytes; mixed lymphocyte reaction assay in murine splenocytes): significant immunosuppressive activity
- immunosuppressive activity (human T-lymphocytes): significant immunosuppressive activity
